SMILES strings stand for the structures.

Holding throughout (assay type): physicochemical
Series [1] is described as follows: Dynamic vapor sorption (DVS). The protocol:
10-20 mg of sample was placed into a mesh vapor sorption balance pan and loaded into a DVS Intrinsic or Advantage dynamic vapor sorption balance by Surface Measurement Systems. The sample was subjected to a ramping profile from 40-90% relative humidity (RH) at 10% increments, maintaining the sample at each step until a stable weight had been achieved (dm/dt 0.004%, minimum step length 30 minutes, maximum step length 500 minutes) at 25° C. After completion of the sorption cycle, the sample was dried using the same procedure to 0% RH and then a second sorption cycle back to 40% RH. Two cycles were performed. The weight change during the sorption/desorption cycles were plotted, allowing for the hygroscopic nature of the sample to be determined. XRPD analysis (XRPD Method A) was then carried out on any solid retained.
DVS isotherms were collected using a Surface Measurement Systems Ltd. DVS-1 No Video, equipment #2126. The sample was loaded into balance pan, typically 10-30 mg, and equilibrated at 0% RH. After the material has dried the RH was increased with 10% per step for 1 hour per increment, ending at 95% RH. After completion of the sorption cycle, the sample was dried using the same method. The software used for data collection is DVSWin v3.01 No Video. Data analysis was performed using DVS Standard Analysis Suite v6.3.0 (Standard). […]

The nature of series [2]: Solubility assessment in solvents. The settings on record: 1,4-dioxane, water, tert-butyl alcohol, THF, ethyl acetate, acetone, methanol, DCM; even at 20 mg/mL with gentle heating. The protocol: 0.5-1 mL of solvent was added to each vial and the samples were manually shaken at ambient temperature. […] The solvents assessed in this solubility study were 1,4-dioxane, water, tert-butyl alcohol, THF, ethyl acetate, acetone, methanol, and DCM.

Series [3] in a line: Dissolution rate assessment in pH 1.2, 0.2 M HCl/KCl buffer. The settings on record: for Conc. mg/mL in pH 1.2 HCl/KCl: ca. 37° C. The protocol: 1000 μL of each sample was drawn from the slurry layer by automated pipette at 15, 30, 60, 120, 240 and 1440 minute timepoints. • These aliquots were spun down through a centrifuge filter, diluted 300 μl:300 μl with the method specified diluent and placed in total recovery vials. The solids were retained for XRPD analysis. • The solubility of the material in the buffer was determined by HPLC analysis (duplicate injections) (Example 1, HPLC Method C) against verified reference solutions of the source material at known concentrations.

The nature of series [4]: 7-day stability assessment of Form 2 inupadenant hydrochloride.
Series [5] is described as follows: 7-day stability assessment of amorphous inupadenant hydrochloride. The protocol:
A 7-day stability assessment of amorphous inupadenant hydrochloride was carried out as follows: (1) 20 mg amorphous inupadenant was added to 3×2 mL glass vials; (2) the samples were then stored under the following conditions—(i) 40° C./75% RH—open vial, (ii) 80° C.—closed vial, and (iii) ambient light—open vial; (3) Solids were stored for 1 week under the above conditions with XRPD analysis (Example 1, XRPD Method A) and HPLC purity analysis (Example 1, HPLC Method A) being carried out post-storage.

Series [6] in a line: Salt disproportionation study in unbuffered water. The settings on record: ambient temperature, 24 hours.
Setting [7] is: 7 days, 40° C. + 75% RH, open vial.
Setting [8] is: 7 days, ambient light, open vial.

For the compound `C[S@+]([O-])CCOc1cc(N2CCN(CCn3c(=O)sc4c3nc(N)n3nc(-c5ccco5)nc43)CC2)c(F)cc1F.Cl` [Form 1 inupadenant hydrochloride], the “DVS total mass uptake” value in series [1] (at 95% RH, DVS Method B) is on record as 5 wt. %.

Consider `C[S@+]([O-])CCOc1cc(N2CCN(CCn3c(=O)sc4c3nc(N)n3nc(-c5ccco5)nc43)CC2)c(F)cc1F.Cl.O` [Form 2 inupadenant hydrochloride], for which, in series [2], the “solubility in solvent systems” value is recorded as “insoluble”. Also, the “DVS total mass increase” value in series [1] (at 90% RH, 25° C., DVS Method A) is given as 3.8 wt. %. Also, the “solubility in pH 1.2 0.2 M HCl/KCl buffer” value in series [3] (37° C., overnight) was “low”. Further, the “Conc. mg/mL in pH 1.2 HCl/KCl” value in series [3] (15 min) is given as 0.0010 mg/mL; in series [3] (30 min) it was 0.0013 mg/mL; in series [3] (60 min) it was 0.0014 mg/mL; in series [3] (120 min), 0.0023 mg/mL; in series [3] (240 min), 0.0029 mg/mL; in series [3] (1440 min) it was 0.0035 mg/mL. In series [3] (pH 1.2 HCl/KCl buffer), the “XRPD of solids recovered from each timepoint” value is given as “consistent with Form 2 inupadenant hydrochloride”. Further, the “HPLC (Purity, % area)” value in series [4] (setting [7]) is listed as 99.64 % area; in series [4] (7 days, 80° C., closed vial), 99.66 % area; in series [4] (setting [8]), 99.66 % area; in series [4] (input material), 99.61 % area. Further, the “XRPD Analysis” value in series [4] (setting [7]) was “Form 2 inupadenant”; in series [4] (7 days, 80° C., closed vial), “Form 2 inupadenant”; in series [4] (setting [8]), “Form 2 inupadenant”; in series [4] (input material) it was “Form 2 inupadenant”. In addition, the “change of solid form (XRPD) after 7-day stability assessment” value in series [4] (all stability conditions) is recorded as “no changes to the solid form”. Further, the “change of solid purity (HPLC) after 7-day stability assessment” value in series [4] (all stability conditions) and in series [5] (all stability conditions) was “no changes to solid purity” throughout. Also, the “solid form (XRPD) after slurrying in water” value in series [6] is “no changes in the solid form”.

As to `C[S@+]([O-])CCOc1cc(N2CCN(CCn3c(=O)sc4c3nc(N)n3nc(-c5ccco5)nc43)CC2)c(F)cc1F.Cl` [amorphous inupadenant hydrochloride], the “HPLC (Purity, % area)” value in series [5] (setting [7]) amounted to 99.64 % area; in series [5] (7 days, 80° C., closed vial), 99.66 % area; in series [5] (setting [8]), 99.66 % area; in series [5] (input material), 99.61 % area. Besides, the “XRPD Analysis” value is on record as “Form 2 inupadenant” in series [5] (setting [7]); “Form 2 inupadenant” in series [5] (7 days, 80° C., closed vial); “Form 2 inupadenant” in series [5] (setting [8]); “Predominantly amorphous” in series [5] (input material). Further, the “change of solid form (XRPD) after 7-day stability assessment” value in series [5] (all stability conditions) is on record as “crystallized into Form 2 inupadenant hydrochloride”.

For the origin of these results see patent US20240343735A1, “Hydrochloride Salt of Inupadenant, Pharmaceutical Compositions and Methods of Use Thereof” (iTeos Belgium SA, priority 2021, published 2024).
